These results are taken from paper PMC6278568, “Discovery of 3-Amino-2-Hydroxypropoxyisoflavone Derivatives as Potential Anti-HCV Agents” (Molecules, 2018).

Entries after “also recorded” stand apart in the source; their conditions may differ.

The subject of one data set is HCV replication. As to the kind of experiment: Anti-HCV activity in Ava-5 HCV subgenomic replicon cells (firefly luciferase assay). Conditions: Ava-5 cells. It counts as cell-based, Hepatitis C virus. As for the experimental part: Ava-5 cells were treated with compounds 6a–i or the positive ribavirin for three days, and then analyzed through firefly luciferase assay. The concentration that inhibited 50% HCV replication (EC50), the concentration that inhibited 50% cell growth (CC50), and the selectivity index (SI: CC50/EC50) of compounds were determined with ribavirin as a positive control.
(§1) Compounds were dissolved in DMSO at 10 mM and then diluted in culture medium.
(§2) Ava5 cells, an engineered HCV subgenomic replicon cell line, were cultured in Dulbecco′s modified Eagle′s medium (DMEM) with 10% heat-inactivated fetal bovine serum, 1% antibiotic–antimycotic, and 1% non-essential amino acids. Ava5 cells were maintained in DMEM with 1 mg mL^−1 G418 to maintain the stable expression of replicon.
On the technique in general: Replicon systems follow genome replication, usually without infectious particles.

Data set [1] can be described thus: Cytotoxicity in Ava-5 cells (XTT method). The note with it: human, Ava5 cells (HCV subgenomic replicon cell line); Ava-5 cells, 72 h, XTT method; read-out: CC50 (concentration causing a 50% growth inhibition of uninfected ava-5 cells). It counts as cell-based. As for the experimental part:
as §1, §2
(§3) For cytotoxicity tests, run in parallel with antiviral assays, plates at an initial density of (5 × 10^3 cells/well) were treated with or without serial dilutions of test compounds. Cell viability was determined after 72 h at 37 °C in a humidified CO2 (5%) atmosphere by the (2,3-bis[2-methyloxy-4-nitro-5-sulfophenyl]-2H-tetrazolium-5-carboxanilide) (XTT) method.
For orientation: Tetrazolium dyes change colour on reduction, which living cells bring about.

A further data set concerns ava-5 cells. As to the kind of experiment: Cytotoxicity in Ava-5 cells (XTT method). The class given is cell-based. On the procedure: as §1, §2, §3
A further data set concerns HCV RNA. As to the kind of experiment: HCV RNA expression in Ava-5 cells by RT-qPCR. It counts as cell-based, Hepatitis C virus. The note with it: Ava-5 cells, 2.5, 5, 10 and 20 μM, 3 days, normalized by GAPDH mRNA. As for the experimental part: (§4) To further confirm the anti-HCV effect of compound 6b, we treated compound 6b at indicated concentrations in Ava-5 cells for 3 days. […] Treatment of 0.1% dimethyl sulfoxide (DMSO) served as a mock control on inhibition of HCV replication (Figure 3 and Figure 4).
Figure 3 Inhibition of HCV RNA expression in HCV-infected Ava-5 cells by 6b. Ava-5 cells were treated with 2.5, 5, 10 and 20 μM of 6b for 3 days. Total RNA was extracted and quantified HCV RNA levels by RT-qPCR. HCV RNA expression was normalized by cellular GAPDH mRNA. Treatment with 0.1% DMSO served as a mock control. The results are expressed as the means ± standard deviations (SD) of triplicate experiments.
A general note: In qPCR the cycle at which signal appears reflects the starting amount.

Data set [2] deals with HCV protein synthesis (NS5B). Kind of data set: HCV protein synthesis in Ava-5 cells by western blotting. The note with it: Ava-5 cells, 2.5, 5, 10 and 20 μM, 3 days. The class given is cell-based, Hepatitis C virus. As for the experimental part:
as §4
Ava5 cells were seeded in 24-well plates at a density of 5 × 10^4 cells per well overnight and treated with indicated reagent at proper concentrations for 3 days. Cells were washed with cold phosphate buffer saline (PBS) and lysed by radioimmunoprecipitation assay (RIPA) lysis buffer (50 mM Tris-HCl, pH 7.5, 150 mM NaCl, 1% Nonidet P-40, 2 mM EDTA, 1 mM EGTA, 1 mM NaVO3, 10 mM NaF, 1 mM DTT, 1 mM PMSF, 25 μg/mL aprotinin, and 25 μg/mL leupeptin) and stored at −20 °C. The protein concentration was determined by the Bradford method. Ten μg protein were separated by 10% SDS-PAGE and transferred onto a polyvinylidene difluorid (PVDF) membrane. The membrane was blocked with 5% non-fat dried milk and incubated with specific antibodies against NS5B (1:5000; Abcam Cambridge, MA, USA), glyceraldehyde-3-phosphate dehydrogenase (GAPDH) and anti-HO-1 (1:3000, Abcam Cambridge, MA, USA). Antibodies were diluted in 5% milk containing Tris-buffered saline (TBS) and 0.5% Tween. The blotting signal was developed using an ECL detection kit (PerkinElmer, Norwalk, CT, USA) and was counted by the software Quantity One (Bio-Rad, Foster, CA, USA). […]

The next data set deals with HO-1 protein expression. Kind of data set: HO-1 protein expression in Ava-5 cells by western blotting. It counts as cell-based. The note with it: 10 μM, 3 days, compared with DMSO-treated cells. On the procedure:
To determine whether compounds 6b, 6e, 6h and 6i have impact on HO-1 protein expression in Ava-5 cells, we treated these compounds at 10 μM in Ava5 cells.
Ava5 cells were seeded in 24-well plates at a density of 5 × 10^4 cells per well overnight and treated with indicated reagent at proper concentrations for 3 days. Cells were washed with cold phosphate buffer saline (PBS) and lysed by radioimmunoprecipitation assay (RIPA) lysis buffer (50 mM Tris-HCl, pH 7.5, 150 mM NaCl, 1% Nonidet P-40, 2 mM EDTA, 1 mM EGTA, 1 mM NaVO3, 10 mM NaF, 1 mM DTT, 1 mM PMSF, 25 μg/mL aprotinin, and 25 μg/mL leupeptin) and stored at −20 °C. The protein concentration was determined by the Bradford method. Ten μg protein were separated by 10% SDS-PAGE and transferred onto a polyvinylidene difluorid (PVDF) membrane. The membrane was blocked with 5% non-fat dried milk and incubated with specific antibodies against NS5B (1:5000; Abcam Cambridge, MA, USA), glyceraldehyde-3-phosphate dehydrogenase (GAPDH) and anti-HO-1 (1:3000, Abcam Cambridge, MA, USA). Antibodies were diluted in 5% milk containing Tris-buffered saline (TBS) and 0.5% Tween. The blotting signal was developed using an ECL detection kit (PerkinElmer, Norwalk, CT, USA) and was counted by the software Quantity One (Bio-Rad, Foster, CA, USA).
Compound 6b, 6e, 6h and 6i induced HO-1 protein expression. Ava-5 cells were treated with compounds at 10 μM for 3 days. The cell lysate was subjected to western blotting with anti-HO-1 and anti-GAPDH antibodies.

The subject of data set [3] is Nrf2 / ARE transactivation. As to the kind of experiment: ARE transactivation, p3xARE-Luc reporter in Ava-5 cells (luciferase assay). It counts as cell-based. The note with it: p3xARE-Luc-transfected Ava-5 cells, 1 and 10 μM, 3 days. An excerpt:
Heme oxygenase 1 expression is regulated by the transcription factors Nrf2, Keap1, and Bach1 through the binding of ARE in its promoter region; therefore, we determined whether isoflavones-mediated HO-1 induction was dependent on ARE transactivation by treating p3xARE-Luc-transfected ava-5 cells with increasing concentrations of […] for 3 days.
Ava5 cells were transfected with the HO-1 promoter-driven luciferase plasmid, pHO-1-Luc, using the T-pro^TM transfection reagent (Ji-Feng Biotechnology Co., Ltd., Taipei, Taiwan) according to the manufacturer′s instructions. The transfected cells were treated with compounds at various concentrations for 3 days. Each transfection complex contains 0.1 μg pSEAP, a secreted alkaline phosphatase (SEAP) expression vector, for normalization luciferase activity serving as a transfection control. The luciferase activity assay was performed using the Bright-Glo Luciferase assay system (Promega) (Madison, WI, USA) according to the manufacturer′s instructions.
Figure 6 Isoflavones inhibited HCV replication by upregulating Nrf2 expression. Compound 6b, 6e, 6h and 6i stimulated ARE transactivation in Ava-5 cells. The antioxidant response reporter plasmid, p3xARE-Luc, was transfected into Ava-5 cells and then treated with isoflavones (1 and 10 μM) for 3 days. The relative induction of antioxidant activity was determined by luciferase assay. The activity of untreated Ava-5 cells was considered to be 1.

`COc1ccc(CCNCC(O)COc2ccc3c(=O)c(-c4ccc(OC)c(OC)c4)coc3c2)cc1OC` (stereo not drawn) [Compound 6b, 7-{3-[(3,4-Dimethoxyphenethyl)amino]-2-hydroxypropoxy}-3-(3,4-dimethoxyphenyl)-4H-chromen-4-one] came in with a melting point of 134 to 135 °C. Besides, the “anti-HCV activity compared with ribavirin (in words)” value in the data set with HCV replication (three days) was “more active than ribavirin”. Besides, the “SI (selectivity index, CC50/EC50)” value in the data set on HCV replication (CC50/EC50) was determined as 21.08. Further, the EC50 in the data set on HCV replication (Hepatitis C virus, Ava5, 72 h, treated for three days, firefly luciferase assay, read-out: EC50 (concentration resulting in a 50% inhibition in virus production / HCV replication)) came out at 6.53 ± 0.57 µM. Also, the “anti-HCV activity relative to ribavirin” value with HCV replication (ratio of EC50 values) was “approximately 2 fold”. Further, in data set [1], the CC50 at 72 h stood at 138 ± 6.91 µM. Further, in the data set with ava-5 cells (Ava5 cells, 2.5-20 μM, 3 days), the “cell cytotoxicity at the antiviral test concentrations” value was “without cell cytotoxicity”. Further, the “cytotoxicity compared with ribavirin (in words)” value in the data set on ava-5 cells (Ava-5 cells) is recorded as “less cytotoxic than ribavirin”. The “HCV RNA replication / expression” value with HCV RNA is reported as “dose-dependently reduced; also recorded: inhibit the HCV RNA expression in Ava5 cells in a dose-dependent manner”. In data set [2], the HCV protein synthesis entry is “dose-dependently reduced”. The HO-1 protein level result in the data set with HO-1 protein expression is “could induce HO-1 protein level”. Moreover, the ARE-mediated luciferase activity entry in data set [3] is “increased ARE-mediated luciferase activity”.

What is called melting point is the temperature of the solid-liquid transition.
